{"source": "patent US20210113563A1", "about": "“4-(4-CYANO-2-THIOARYL)DIHYDROPYRIMIDINONES FOR TREATING CHRONIC WOUNDS” (pH Pharma Co., Ltd., priority 2015, published 2021)", "key": {"[1]": {"system": "wounds of Tight Skin mice (TSK)", "assay": "Reepithelialization and visual healing of full thickness skin excision wounds in Tight Skin mice (TSK)", "format": "in vivo", "settings": "TSK mouse; for Wound closure (reepithelialization) in % of initial epidermal gap: d 12, CK16 staining", "from_the_text": "OBJECTIVE: To evaluate wound closure/reepithelialization promoting effects of the Neutrophil Elastase Inhibitor Example 3 in a fibrosis-related model of delayed wound healing (Tight Skin Mouse, TSK). METHODS: Animals: mice, male+female, strain: B6.Cg-FBN1<Tsk>−/− (wt) and +/−(het), age: 5 weeks upon delivery, breeder: Bayer. Food (ssniff R/M-H) and water was provided ad libitum. Experimental procedure: Mice were randomized at day 0. At day 0, 3 full thickness excision wounds were induced. For that, animals were anesthetized (Rompun/Ketavet/NaCl 0.9% [1+3+16]) in […]. The lower back was shaved, then moistened with tap water. Pilca depilation cream was applied and left for 3-5 minutes to act, then wiped off. To prevent the animals from cooling down during the procedure, they were placed on warming mats. Skin was excised using 6 mm diameter round scalpels. After wake up mice were distributed to individual cages. Treatment: Day 0 to 11 twice daily per os. Example 3 was dissolved in PEG400 as a vehicle. Administration was twice daily (bid). Skin samples were harvested into formalin (3.7% in PBS) at day 12 after scarifying with isoflurane/O2/N2O anesthesia followed by dislocation of the cervical spine. After soaking in formalin (24-72 h), the samples were transferred to paraffin and then cut. Staining of cytokeratin 16 was performed using rabbit polyclonal anti-Keratin 16 (CK16, KRT16, ABIN265495), 1 mg/ml anti-CK16 antibody by IHC-Peroxidase (in a 1:100 dilution) EnVision+ System-HRP (DAB), for Rabbit Primary Antibodies (Dako #K4011).\nEffects were most prominent on d7 and d9. All dosages were similarly effective, i.e. a clear dose response ratio remained to be established. […] Based on the size of the induced wounds, 6000 μm was set as 100%. The epidermal gap, i.e. the distance between the epidermal edges was measured by microscopic histometry. The width of the gap was subtracted from the initial wound. The delta represented the reepithelialized part of the wound and was expressed as reepithelialization in % of the initial wound diameter, i.e. 100% equaled complete reepithelialization or full wound closure."}, "HaCaT cells": {"system": "HaCaT cells", "assay": "HaCaT modified scratch assay (Oris Cell Migration Assay) with human neutrophil elastase", "format": "cell-based", "settings": "7.5 μg/mL hNE", "procedure": "The modified scratch-wound assay is a simple, reproducible assay commonly used to measure basic cell migration parameters such as speed, persistence, and polarity. Cells are grown to confluence and a thin “wound” is introduced by scratching with a pipette tip. In the modified version, a plastic plug is placed into the tissue well while the cells adhere and grow to confluence. When the plug is pulled, a circular “wound” emerges. Cells at the wound edge polarise and migrate into the wound space. […] At the given time points, the size of the free area is measured.\nMethod: Oris Cell Migration Assay (collagen I coated) with HaCaT cells. Establishing a dose response curve for test compounds with and without addition of 7.5 μg/mL human neutrophil elastase (hNE).\nFor harvesting the cells, the medium was first extracted from the cell culture flask, then washed with PBS and 10-20 ml aspirated again. 2.5 ml (75 cm^2 flask bottom area) or 5 ml (162 cm^2) TrypLE Express were added, as well as the same amount of PBS followed by incubating the cells for 10 minutes (37° C.). The cells were transferred into a tube, centrifuged (250×g, 10 min, RT=room temperature) and resuspended in medium.\nThe following cell concentration was used: 7×10^5 cells/ml=7×10^4 cells/well/100 μl.\nIn this time, the cells adhered and grew to confluence. The compounds were then added to achieve the below indicated concentrations. The plugs were then removed.\nOnce all components were pipetted to the cells, one photo per well was taken including the “wound” (0 h). A Zeiss AxioObserver (5× lens, bright field, 5.5 V light exposure 2.2 ms) and the AxioVision software was used. […] 16 h later pictures were taken again.\nThe relative healing was calculated, i.e. the percentage of closed wound area compared to baseline at 0 h.\nWound healing %=100−(‘wound surface after x hours’*100/‘wound surface after 0 hours’)\nFrom the calculated relative wound healing a graphic in GrapPad prism was created, and EC50 values were determined.\nFor evaluation of pictures the software ImageJ was used. For this, the ZVI files were exported within the AxioVision software as jpg. This jpg files were then opened by ImageJ. Using the Tools panel (Mode: 4-connected/Tolerance=5-20) the to be measured surface area was marked."}, "[2]": {"target": "T1, human neutrophil elastase (HNE) (Homo sapiens, UniProt P08246)", "T1 sequence (P08246 30-267)": "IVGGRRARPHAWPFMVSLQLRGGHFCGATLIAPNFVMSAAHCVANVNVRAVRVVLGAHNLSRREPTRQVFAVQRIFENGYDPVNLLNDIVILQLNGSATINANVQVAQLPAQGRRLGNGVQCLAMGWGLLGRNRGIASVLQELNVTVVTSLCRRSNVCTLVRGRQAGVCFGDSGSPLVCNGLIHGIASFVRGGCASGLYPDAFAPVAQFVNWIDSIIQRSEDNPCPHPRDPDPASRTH", "settings": "read-out: Inhibition of human neutrophil elastase (HNE) IC50; cited from earlier work"}}, "note": "Entries after “also recorded” stand apart in the source; their conditions may differ.", "data": [{"smiles": "CC1=C(C#N)[C@@H](c2ccc(C#N)cc2S(C)(=O)=O)N(S(C)(=O)=O)C(=O)N1c1cccc(C(F)(F)F)c1", "note": "[Example 3, (4 S)-4-[4-Cyano-2-(methylsulfonyl)phenyl]-6-methyl-3-(methylsulfonyl)-2-oxo-1-[3-(trifluoromethyl)phenyl]-1,2,3,4-tetrahydropyrimidine-5-carbonitrile]", "values": [{"measurement": "Wound closure (reepithelialization) in % of initial epidermal gap", "setting": "[1]; 2.5 mg/kg BW twice daily p.o.", "value": 95.8, "unit": "%"}, {"measurement": "Wound closure (reepithelialization) in % of initial epidermal gap", "setting": "[1]; 5 mg/kg BW twice daily p.o.", "value": 93.9, "unit": "%"}, {"measurement": "Wound closure (reepithelialization) in % of initial epidermal gap", "setting": "[1]; 10 mg/kg BW twice daily p.o.", "value": 99.5, "unit": "%"}, {"measurement": "Wound closure (reepithelialization) in % of initial epidermal gap", "setting": "[1]; 20 mg/kg BW twice daily p.o.", "value": 100, "unit": "%"}, {"measurement": "Visual wound healing, wound area reduction over time (in words)", "setting": "[1]; 2.5-20 mg/kg bid p.o., FIG. 1", "value": "significant visual wound healing improving effects; also recorded: induced accelerated wound healing"}, {"measurement": "Reepithelialization vs. vehicle controls, histological (in words)", "setting": "[1]; d 12", "value": "reepithelialization was significantly further advanced"}, {"measurement": "Correction of the reepithelialization-impairing effect of NE (in words)", "setting": "HaCaT cells", "value": "almost entirely, potently and concentration-dependently be corrected; also recorded: potently and effectively able to block detrimental effects of NE"}, {"measurement": "IC50", "setting": "HaCaT cells; Homo sapiens, 16 h", "value": 57.4, "unit": "nM"}, {"measurement": "Bottom", "setting": "HaCaT cells; curve fit, 16 h", "value": 90.41}, {"measurement": "Span", "setting": "HaCaT cells; curve fit, 16 h", "value": "−47.65"}, {"measurement": "Top", "setting": "HaCaT cells; curve fit, 16 h", "value": 42.75}, {"measurement": "IC50", "setting": "[2]", "value": "< 0.3", "unit": "nM"}]}, {"smiles": "CC1=C(C#N)[C@@H](c2ccc(C#N)cc2S(C)(=O)=O)N(S(=O)(=O)C2CC2)C(=O)N1c1cccc(C(F)(F)F)c1", "note": "[Example 4, (4 S)-4-[4-Cyano-2-(methylsulfonyl)phenyl]-6-methyl-3-(cyclopropylsulfonyl)-2-oxo-1-[3-(trifluoromethyl)phenyl]-1,2,3,4-tetrahydropyrimidine-5-carbonitrile]", "values": [{"measurement": "IC50", "setting": "[2]", "value": "< 0.3", "unit": "nM"}]}, {"smiles": "CCS(=O)(=O)c1cc(C#N)ccc1[C@@H]1C(C#N)=C(C)N(c2cccc(C(F)(F)F)c2)C(=O)N1C", "note": "[Example 6, (4 S)-4-[4-Cyano-2-(ethylsulfonyl)phenyl]-3,6-dimethyl-2-oxo-1-[3-(trifluoromethyl)phenyl]-1,2,3,4-tetrahydropyrimidine-5-carbonitrile]", "values": [{"measurement": "IC50", "setting": "[2]", "value": "< 0.3", "unit": "nM"}]}]}
